ChEMBL document CHEMBL3879892, “Small molecule inhibition of PDZ-domain interaction” (2011)
Activity calls are given as the source filed them. The calls are words filed in the database; no cut-off is given here.

Assays:
[1] = Antitumor activity against human LOX cells xenografted in immune deficient nude mouse assessed as tumor growth inhibition at 50 mg/kg, ip administered for 14 days measured after 2 weeks post last dose relative to control; type: functional; conditions: 336 h, read-out: TGI
LOX = assay: Inhibition of Dvl PDZ domain interaction with Fz protein in human LOX cells assessed as induction of apoptosis at 10 uM after 3 days by annexin V-FITC staining-based flow cytometry (reference value: 8.81 to 10.85%); type: cell-based; parameters: scale not given: the % may be the effect or the level left
[2] = molecular target: T1, Membrane-associated guanylate kinase, WW and PDZ domain-containing protein 3 (Homo sapiens) (UniProt Q5TCQ9); assay: Inhibition of fluorescein labeled PFDEDQHTQITWV-COOH interaction with GST-fused MAGI-3 second PDZ domain (unknown origin) expressed in Escherichia coli BL21 (DE3) by fluorescence polarization assay
T1 sequence (whole entry): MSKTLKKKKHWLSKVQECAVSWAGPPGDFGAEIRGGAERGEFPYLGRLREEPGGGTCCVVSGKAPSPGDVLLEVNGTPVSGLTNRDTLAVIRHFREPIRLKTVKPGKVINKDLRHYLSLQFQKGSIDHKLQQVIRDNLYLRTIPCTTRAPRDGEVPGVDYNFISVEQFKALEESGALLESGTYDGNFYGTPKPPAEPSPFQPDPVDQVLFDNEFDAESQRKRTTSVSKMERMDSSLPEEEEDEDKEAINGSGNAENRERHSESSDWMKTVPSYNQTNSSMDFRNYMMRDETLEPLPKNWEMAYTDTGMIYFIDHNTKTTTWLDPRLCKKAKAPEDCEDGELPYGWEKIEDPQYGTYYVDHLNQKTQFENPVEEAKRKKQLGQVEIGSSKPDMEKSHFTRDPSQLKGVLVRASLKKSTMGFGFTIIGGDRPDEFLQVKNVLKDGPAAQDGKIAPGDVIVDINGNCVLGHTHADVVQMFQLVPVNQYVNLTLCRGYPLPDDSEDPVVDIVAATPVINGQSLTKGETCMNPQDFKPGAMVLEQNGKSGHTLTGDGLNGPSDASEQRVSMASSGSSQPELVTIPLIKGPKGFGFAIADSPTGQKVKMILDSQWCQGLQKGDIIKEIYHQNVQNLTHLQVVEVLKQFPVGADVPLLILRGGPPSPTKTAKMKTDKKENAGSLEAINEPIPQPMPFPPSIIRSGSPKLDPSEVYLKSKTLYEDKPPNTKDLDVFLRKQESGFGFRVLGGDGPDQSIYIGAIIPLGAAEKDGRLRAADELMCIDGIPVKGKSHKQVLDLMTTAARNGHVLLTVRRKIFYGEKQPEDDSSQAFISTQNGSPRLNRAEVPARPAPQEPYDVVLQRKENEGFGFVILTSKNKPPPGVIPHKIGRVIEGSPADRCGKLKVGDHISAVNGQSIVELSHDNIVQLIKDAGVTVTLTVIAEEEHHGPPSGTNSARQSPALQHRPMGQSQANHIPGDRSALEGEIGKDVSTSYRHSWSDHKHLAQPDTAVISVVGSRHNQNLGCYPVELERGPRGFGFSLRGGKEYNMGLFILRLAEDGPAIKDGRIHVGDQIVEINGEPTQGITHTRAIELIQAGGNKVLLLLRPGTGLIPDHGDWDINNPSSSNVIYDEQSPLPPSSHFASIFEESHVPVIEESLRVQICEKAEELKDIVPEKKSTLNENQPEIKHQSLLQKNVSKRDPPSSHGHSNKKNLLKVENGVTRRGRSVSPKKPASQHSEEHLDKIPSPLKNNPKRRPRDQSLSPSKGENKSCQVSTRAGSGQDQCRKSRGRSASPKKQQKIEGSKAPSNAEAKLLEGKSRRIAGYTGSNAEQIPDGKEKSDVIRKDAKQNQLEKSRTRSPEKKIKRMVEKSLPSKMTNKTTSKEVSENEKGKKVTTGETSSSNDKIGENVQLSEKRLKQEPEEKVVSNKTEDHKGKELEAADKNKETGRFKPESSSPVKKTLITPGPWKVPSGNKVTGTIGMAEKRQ

NCI-H460 = assay: Inhibition of Dvl PDZ domain interaction with Fz protein in human NCI-H460 cells assessed as induction of apoptosis at 10 uM after 3 days by annexin V-FITC staining-based flow cytometry (reference value: 7.59 to 10.24%); type: cell-based; parameters: scale not given: the % may be the effect or the level left
[3] = Antitumor activity against human NCI-H460 cells xenografted in immune deficient nude mouse assessed as tumor growth inhibition at 50 mg/kg, ip administered for 14 days measured after 2 weeks post last dose relative to control; type: functional; conditions: 336 h, read-out: TGI

For `CCCCC(O)c1[nH]c2cc(C)c(C(=O)O)cc2c1CCc1ccccc1` (centres undefined), which inhibition in vivo at 50 mg/kg [1] is on record?
Its inhibition in vivo at 50 mg/kg is 66 to 82%.

And the Activity (LOX)?
The Activity was 13.4 to 18.5%.

What about the inhibition [2] of the same compound?
Its inhibition is “Active”.

And the Activity (NCI-H460)?
Its Activity is 14.6 to 28.3%.

What about the inhibition in vivo at 50 mg/kg [3] of the same compound?
The inhibition in vivo at 50 mg/kg was 20 to 34%.

Which Activity (LOX) does the source give for `Cc1cc2[nH]c(C(O)c3ccccc3)c(CCCc3ccccc3)c2cc1C(=O)O` (centres undefined) here?
The Activity was 65.3%.

And the Activity (NCI-H460)?
Its Activity is 37%.

Which Activity (LOX) does the source give for `Cc1cc2[nH]c(C(O)CCc3ccccc3)c(CCc3ccccc3)c2cc1C(=O)O` (centres undefined) here?
The Activity was 34.7%.

And the Activity (NCI-H460)?
Its Activity is 36.7%.
